Reference: patent US10906873B2, “Substituted cyclic amides as herbicides” (FMC Corporation, priority 2015, dated 2021)

What was measured:
Type in all cases: in vivo
[1] = system: velvetleaf (Abutilon theophrasti); experiment: Test A postemergence, velvetleaf; conditions: 1000 g ai/ha, 0 to 100 scale
From the text: (§1) Seeds of plant species selected from barnyardgrass (Echinochloa crus-galli), crabgrass (large crabgrass, Digitaria sanguinalis), kochia (Kochia scoparia), ragweed (common ragweed, Ambrosia elatior), morningglory (Ipomoea spp.), velvetleaf (Abutilon theophrasti), ryegrass, It. (Italian ryegrass, Lolium multiflorum), foxtail, giant (giant foxtail, Setaria faberii), wheat (Triticum aestivum), corn (Zea mays), and pigweed (Amaranthus retroflexus), were planted into a blend of loam soil and sand and treated preemergence with a directed soil spray using test chemicals formulated in a non-phytotoxic solvent mixture which included a surfactant. At the same time, plants selected from these crop and weed species and also blackgrass (Alopecurus myosuroides), and galium (catchweed bedstraw, Galium aparine), were planted in pots containing the same blend of loam soil and sand and treated with postemergence applications of test chemicals formulated in the same manner. Plants ranged in height from 2 to 10 cm and were in the one- to two-leaf stage for the postemergence treatment. Treated plants and untreated controls were maintained in a greenhouse for approximately 10 d, after which time all treated plants were compared to untreated controls and visually evaluated for injury. Plant response ratings, summarized in Table A, are based on a 0 to 100 scale where 0 is no effect and 100 is complete control. A dash (-) response means no test result.

[2] = system: crabgrass (large crabgrass, Digitaria sanguinalis); experiment: Test A postemergence, crabgrass; conditions: 1000 g ai/ha, 0 to 100 scale
From the text: as §1

[3] = system: barnyardgrass (Echinochloa crus-galli); experiment: Test A preemergence, barnyardgrass; conditions: 0 to 100 scale
Outline: (§2)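 Visual injury rating, 0–100 scale (100 = complete control), ~10 d after treatment, relative to untreated controls. Greenhouse pots, loam soil/sand; compound in solvent mix with surfactant applied as soil spray preemergence or foliar postemergence at 1–2-leaf stage.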

[4] = system: barnyardgrass (Echinochloa crus-galli); experiment: Test A postemergence, barnyardgrass
Outline: as §2

[5] = system: foxtail, giant (giant foxtail, Setaria faberii); experiment: Test A preemergence, foxtail, giant; conditions: 0 to 100 scale
Outline: as §2

corn (Zea mays) [6] = experiment: Test A preemergence, corn; conditions: 1000 g ai/ha, 0 to 100 scale
From the text: as §1

[7] = system: morningglory (Ipomoea spp.); experiment: Test A postemergence, morningglory; conditions: 1000 g ai/ha, 0 to 100 scale
From the text: as §1

[8] = system: pigweed (Amaranthus retroflexus); experiment: Test A preemergence, pigweed; conditions: 0 to 100 scale
Outline: as §2

[9] = system: morningglory (Ipomoea spp.); experiment: Test A preemergence, morningglory; conditions: 1000 g ai/ha, 0 to 100 scale
From the text: as §1

[10] = system: pigweed (Amaranthus retroflexus); experiment: Test A postemergence, pigweed; conditions: 0 to 100 scale
Outline: as §2

[11] = system: wheat (Triticum aestivum); experiment: Test A preemergence, wheat; conditions: 1000 g ai/ha, 0 to 100 scale
From the text: as §1

[12] = system: crabgrass (large crabgrass, Digitaria sanguinalis); experiment: Test A preemergence, crabgrass; conditions: 1000 g ai/ha, 0 to 100 scale
From the text: as §1

corn (Zea mays) [13] = experiment: Test A postemergence, corn; conditions: 0 to 100 scale
Outline: as §2

[14] = system: velvetleaf (Abutilon theophrasti); experiment: Test A preemergence, velvetleaf; conditions: 1000 g ai/ha, 0 to 100 scale
From the text: as §1

[15] = system: wheat (Triticum aestivum); experiment: Test A postemergence, wheat; conditions: 0 to 100 scale
Outline: as §2

[16] = system: foxtail, giant (giant foxtail, Setaria faberii); experiment: Test A postemergence, foxtail, giant; conditions: 0 to 100 scale
Outline: as §2

[17] = system: ragweed (common ragweed, Ambrosia elatior); experiment: Test A preemergence, ragweed; conditions: 0 to 100 scale
Outline: as §2

kochia (Kochia scoparia) [18] = experiment: Test A postemergence, kochia; conditions: 0 to 100 scale
Outline: as §2

[19] = system: ragweed (common ragweed, Ambrosia elatior); experiment: Test A postemergence, ragweed; conditions: 0 to 100 scale
Outline: as §2

[20] = system: ryegrass, It. (Italian ryegrass, Lolium multiflorum); experiment: Test A preemergence, ryegrass, It.; conditions: 0 to 100 scale
Outline: as §2

rice (Oryza sativa) = experiment: Test B flooded paddy test, rice; conditions: Flood, 250 g ai/ha; scale of 0 to 100 where 0 is no effect and 100 is complete control; 13 to 15 d
Outline: (§3)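 Plants grown to the 2-leaf stage. At treatment, pots were flooded to 3 cm above the soil, compound was applied directly to the paddy water, and that depth was held throughout. After 13 to 15 d in the greenhouse, response was rated visually against controls on a 0 (no effect) to 100 (complete control) scale.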

[21] = system: ryegrass, It. (Italian ryegrass, Lolium multiflorum); experiment: Test A postemergence, ryegrass, It.; conditions: 0 to 100 scale
Outline: as §2

[22] = system: ducksalad (Heteranthera limosa); experiment: Test B flooded paddy test, ducksalad; conditions: Flood, 250 g ai/ha; scale of 0 to 100 where 0 is no effect and 100 is complete control; 13 to 15 d
Outline: as §3

[23] = system: galium (catchweed bedstraw, Galium aparine); experiment: Test A postemergence, galium; conditions: 0 to 100 scale
Outline: as §2

[24] = system: barnyardgrass (Echinochloa crus-galli); experiment: Test B flooded paddy test, barnyardgrass; conditions: Flood, 250 g ai/ha; scale of 0 to 100 where 0 is no effect and 100 is complete control; 13 to 15 d
Outline: as §3

kochia (Kochia scoparia) [25] = experiment: Test A preemergence, kochia; conditions: 0 to 100 scale
Outline: as §2

[26] = system: blackgrass (Alopecurus myosuroides); experiment: Test A postemergence, blackgrass; conditions: 0 to 100 scale
Outline: as §2

[27] = system: sedge, umbrella (small-flower umbrella sedge, Cyperus difformis); experiment: Test B flooded paddy test, sedge, umbrella; conditions: Flood, 250 g ai/ha; scale of 0 to 100 where 0 is no effect and 100 is complete control; 13 to 15 d
Outline: as §3

Row | Compound | Plant response rating, Ragweed ([17]; 125 g ai/ha) | Plant response rating, Ragweed ([17]; 500 g ai/ha) | Plant response rating, Kochia (kochia (Kochia scoparia) [18]; 125 g ai/ha) | Plant response rating, Kochia (kochia (Kochia scoparia) [18]; 500 g ai/ha) | Plant response rating, Ragweed ([19]; 125 g ai/ha) | Plant response rating, Ragweed ([19]; 500 g ai/ha) | Plant response rating, Ryegrass, It. ([20]; 125 g ai/ha) | Plant response rating, Ryegrass, It. ([20]; 500 g ai/ha) | Plant response rating, Rice (rice (Oryza sativa)) | Plant response rating, Ryegrass, It. ([21]; 125 g ai/ha) | Plant response rating, Ryegrass, It. ([21]; 500 g ai/ha) | Plant response rating, Ducksalad [22] | Plant response rating, Barnyardgrass ([3]; 125 g ai/ha) | Plant response rating, Barnyardgrass ([3]; 500 g ai/ha) | Plant response rating, Barnyardgrass ([4]; 125 g ai/ha, 0 to 100 scale) | Plant response rating, Barnyardgrass ([4]; 500 g ai/ha, 0 to 100 scale) | Plant response rating, Galium ([23]; 125 g ai/ha) | Plant response rating, Galium ([23]; 500 g ai/ha) | Plant response rating, Barnyardgrass [24] | Plant response rating, Foxtail, Giant ([5]; 125 g ai/ha) | further results
1 | O=C1NCC(Cc2ccccc2)C1C(=O)Nc1ccccc1F (stereo not shown) [Compound 3] |  |  |  |  |  |  |  |  |  |  |  |  |  |  |  |  |  |  |  |  | Plant response rating, Velvetleaf [1]: 0; Plant response rating, Crabgrass [2]: 0; Plant response rating, Barnyardgrass ([3]; 1000 g ai/ha): 0; Plant response rating, Barnyardgrass ([4]; 1000 g ai/ha, 0 to 100 scale (0 no effect, 100 complete control)): 0; Plant response rating, Foxtail, Giant ([5]; 1000 g ai/ha): 0; Plant response rating, Corn (corn (Zea mays) [6]): 0; Plant response rating, Morningglory [7]: 0; Plant response rating, Pigweed ([8]; 1000 g ai/ha): 0; Plant response rating, Morningglory [9]: 0; Plant response rating, Pigweed ([10]; 1000 g ai/ha): 0; Plant response rating, Wheat [11]: 0; Plant response rating, Crabgrass [12]: 0; Plant response rating, Corn (corn (Zea mays) [13]; 1000 g ai/ha): 0; Plant response rating, Velvetleaf [14]: 0; Plant response rating, Wheat ([15]; 1000 g ai/ha): 0; Plant response rating, Foxtail, Giant ([16]; 1000 g ai/ha): 0
2 | O=C1NCC(CCc2ccccc2)C1C(=O)Nc1ccccc1F (stereo not shown) [Compound 20] | 0 | 0 | 0 | 0 | 0 | 0 | 0 | 0 | 0 | 0 | 0 | 50 | 0 | 0 | 0 | 0 | 0 | 0 | 0 | 0 | Plant response rating, Foxtail, Giant ([5]; 500 g ai/ha): 0; Plant response rating, Kochia (kochia (Kochia scoparia) [25]; 125 g ai/ha): 0; Plant response rating, Kochia (kochia (Kochia scoparia) [25]; 500 g ai/ha): 0; Plant response rating, Pigweed ([8]; 125 g ai/ha): 0; Plant response rating, Pigweed ([8]; 500 g ai/ha): 0; Plant response rating, Pigweed ([10]; 125 g ai/ha): 0; Plant response rating, Pigweed ([10]; 500 g ai/ha): 0; Plant response rating, Blackgrass ([26]; 125 g ai/ha): 0; Plant response rating, Blackgrass ([26]; 500 g ai/ha): 0; Plant response rating, Corn (corn (Zea mays) [13]; 125 g ai/ha): 0; Plant response rating, Corn (corn (Zea mays) [13]; 500 g ai/ha): 0; Plant response rating, Wheat ([15]; 125 g ai/ha): 0; Plant response rating, Wheat ([15]; 500 g ai/ha): 0; Plant response rating, Sedge, Umbrella [27]: 0; Plant response rating, Foxtail, Giant ([16]; 125 g ai/ha): 0; Plant response rating, Foxtail, Giant ([16]; 500 g ai/ha): 0
3 | O=C1NCC(C#Cc2cccc(Cl)c2)C1C(=O)Nc1ccc(F)c(F)c1F (stereo not shown) [Compound 26] | 0 | 0 | 0 | 0 | 0 | 0 | 0 | 0 | 0 | 0 | 0 | 75 | 0 | 70 | 0 | 60 | 0 | 0 | 0 | 0 | Plant response rating, Foxtail, Giant ([5]; 500 g ai/ha): 70; Plant response rating, Kochia (kochia (Kochia scoparia) [25]; 125 g ai/ha): 0; Plant response rating, Kochia (kochia (Kochia scoparia) [25]; 500 g ai/ha): 0; Plant response rating, Pigweed ([8]; 125 g ai/ha): 0; Plant response rating, Pigweed ([8]; 500 g ai/ha): 40; Plant response rating, Pigweed ([10]; 125 g ai/ha): 0; Plant response rating, Pigweed ([10]; 500 g ai/ha): 0; Plant response rating, Blackgrass ([26]; 125 g ai/ha): 0; Plant response rating, Blackgrass ([26]; 500 g ai/ha): 0; Plant response rating, Corn (corn (Zea mays) [13]; 125 g ai/ha): 0; Plant response rating, Corn (corn (Zea mays) [13]; 500 g ai/ha): 0; Plant response rating, Wheat ([15]; 125 g ai/ha): 0; Plant response rating, Wheat ([15]; 500 g ai/ha): 0; Plant response rating, Sedge, Umbrella [27]: 0; Plant response rating, Foxtail, Giant ([16]; 125 g ai/ha): 0; Plant response rating, Foxtail, Giant ([16]; 500 g ai/ha): 40
4 | O=C1NCC(/C=C/c2ccccc2)C1C(=O)Nc1ccccc1F (stereo not shown) [Compound 32] | 0 | 0 | 0 | 0 | 10 | 10 | 0 | 0 | 0 | 0 | 0 | 70 | 20 | 60 | 40 | 90 | 0 | 0 | 0 | 0 | Plant response rating, Foxtail, Giant ([5]; 500 g ai/ha): 80; Plant response rating, Kochia (kochia (Kochia scoparia) [25]; 125 g ai/ha): 0; Plant response rating, Kochia (kochia (Kochia scoparia) [25]; 500 g ai/ha): 0; Plant response rating, Pigweed ([8]; 125 g ai/ha): 0; Plant response rating, Pigweed ([8]; 500 g ai/ha): 0; Plant response rating, Pigweed ([10]; 125 g ai/ha): 0; Plant response rating, Pigweed ([10]; 500 g ai/ha): 0; Plant response rating, Blackgrass ([26]; 125 g ai/ha): 0; Plant response rating, Blackgrass ([26]; 500 g ai/ha): 0; Plant response rating, Corn (corn (Zea mays) [13]; 125 g ai/ha): 20; Plant response rating, Corn (corn (Zea mays) [13]; 500 g ai/ha): 20; Plant response rating, Wheat ([15]; 125 g ai/ha): 0; Plant response rating, Wheat ([15]; 500 g ai/ha): 0; Plant response rating, Sedge, Umbrella [27]: 0; Plant response rating, Foxtail, Giant ([16]; 125 g ai/ha): 20; Plant response rating, Foxtail, Giant ([16]; 500 g ai/ha): 80
5 | O=C1NCC(C#Cc2cccc(Cl)c2)C1C(=O)Nc1ccccc1F (stereo not shown) [Compound 29] | 0 | 0 | 0 | 0 | 0 | 0 | 0 | 0 | 0 | 0 | 0 | 75 | 30 | 70 | 0 | 60 | 0 | 0 | 0 | 0 | Plant response rating, Foxtail, Giant ([5]; 500 g ai/ha): 60; Plant response rating, Kochia (kochia (Kochia scoparia) [25]; 125 g ai/ha): 0; Plant response rating, Kochia (kochia (Kochia scoparia) [25]; 500 g ai/ha): 0; Plant response rating, Pigweed ([8]; 125 g ai/ha): 0; Plant response rating, Pigweed ([8]; 500 g ai/ha): 0; Plant response rating, Pigweed ([10]; 125 g ai/ha): 0; Plant response rating, Pigweed ([10]; 500 g ai/ha): 0; Plant response rating, Blackgrass ([26]; 125 g ai/ha): 0; Plant response rating, Blackgrass ([26]; 500 g ai/ha): 0; Plant response rating, Corn (corn (Zea mays) [13]; 125 g ai/ha): 0; Plant response rating, Corn (corn (Zea mays) [13]; 500 g ai/ha): 0; Plant response rating, Wheat ([15]; 125 g ai/ha): 0; Plant response rating, Wheat ([15]; 500 g ai/ha): 0; Plant response rating, Sedge, Umbrella [27]: 0; Plant response rating, Foxtail, Giant ([16]; 125 g ai/ha): 0; Plant response rating, Foxtail, Giant ([16]; 500 g ai/ha): 60
